# Reference: US5670479A, “α-ketoamide derivatives as inhibitors of thrombosis” (Corvas International, Inc., priority 1994, dated 1997)
# Tests used:
# [1] = target: T1, a-thrombin (Homo sapiens, UniProt P00734); assay: Thrombin-induced clotting of purified fibrinogen; type: biochemical; details: preincubation with a-thrombin 0, 30, 60 minutes before fibrinogen
# Protocol: The clotting time of fibrinogen following the addition of the thrombin/inhibitor complex was measured optically using the Coag-A-Mate XC automated coagulometer (General Diagnostics, Organon Technica, Oklahoma City, Okla.).
# This inhibition is reflected as an increase in the relative clotting time which is the ratio of the […]. The control clotting time in this assay is 16.2±0.78 sec.
# [2] = tested on: Male Harlan Sprague Dawley rats; assay: Rat model of FeCl3-induced platelet-dependent arterial thrombosis; type: in vivo
# Excerpt: Kurz, K. D., Main, B. W., and Sandusky, G. E., Thromb. Res., 60: 269-280. (1990). In this model a platelet-rich, occlusive thrombus is formed in a segment of the rat carotid artery treated with a fresh solution of FeCl3 absorbed to a piece of filter paper. The FeCl3 is thought to diffuse into the treated segment of artery and causes de-endothelialization resulting in thrombus formation. The effect of a test compound on the incidence of occlusive thrombus formation following the application of the FeCl3 is monitored by ultrasonic flowtometry and is used as the primary end point. The use of flowtometry is a modification of the original procedure in which thermal detection of clot formation was employed. Kurz, K. D., Main, B. W., and Sandusky, G. E., Thromb. Res., 60: 269-280 (1990).
# Male Harlan Sprague Dawley rats (420-450 g) were acclimated at least 72 hours prior to use and fasted for 12 hours prior to surgery with free access to water. The animals were prepared, anesthetized with Nembutal with catheters for blood pressure monitoring, drug and anesthesia delivery being implanted as described above. The left carotid artery was exposed and isolated by making a midline cervical incision followed by blunt dissection and spreading techniques to separate a 2 cm segment of the vessel from the carotid sheath. A silk suture is inserted under the proximal and distal ends of the isolated vessel to provide clearance for the placement of a ultrasonic flow probe (Transonic) around the proximal end of the vessel. The probe is then secured with a stationary arm.
# The test compounds were administered as described above after placement of the flow probe and stabilization of the preparation for a period of 60 minutes prior to the thrombogenic stimulus. At t=0, a 3 mm diameter piece of filter paper (Whatman #3) soaked with […] of a 35% solution of fresh FeCl3 (in water) was applied the segment of isolated carotid artery distal to the flow probe. Blood pressure, blood flow, heart rate, and respiration were monitored for 60 minutes.
# The incidence of occlusion (defined as the attainment of zero blood flow) was recorded as the primary end point. Following the 60 minute observation period the flow probe was removed and the area cleared of all excess fluid. The distal and proximal sutures were tied off and arterial clamps placed on the far proximal and distal ends of the segment. The isolated segment was cut out, blotted dry on filter paper and weighed. The segment was re-weighed following removal of the clot and the difference recorded as total % clot (see above). Weights were recorded on only those segments which had detectable thrombus. Following the procedure the animals were euthanized as described above.
# [3] = target: T2, clot-bound a-thrombin (Homo sapiens, UniProt P00734); assay: Inhibition of clot-bound thrombin (FPA generation in citrated plasma); type: biochemical
# T2 construct: from tissue; host or cells: washed clots formed from citrated plasma by adding CaCl2
# Protocol: Plasma clots were formed around wire hooks by the addition of CaCl2 (final concentration, 25 mM) to 500 μl aliquots of citrated plasma. After aging the clots for 60 minutes at 37° C. with constant agitation, the clots were washed 10 times with 2 ml aliquots of 0.1M NaCl buffered with 0.05M Tris-HCL, pH 7.4 over an 18 hour period. The washed clots were then incubated in 1 ml aliquots of citrated plasma for 60 minutes at 37° C. in the absence or presence of the various inhibitors. At timed intervals, 100 μl aliquots were removed and the reaction was terminated by the addition of the irreversible serine protease inhibitor, D-phenylalanyl-prolinyl-argininyl-CH2 Cl.
# Unreacted fibrinogen was precipitated with ethanol, and the ethanol supernatants were then assayed for FPA.
# [4] = tested on: baboons; details: baboon, other direct antithrombins evaluated earlier in this model, cited from earlier work
# [5] = target: T1, a-thrombin; assay: Inhibition of fluid-phase thrombin (FPA generation in citrated plasma); type: biochemical; set-up: Purified human a-thrombin; purchased Enzyme Research Laboratories, Inc; details: 60 min, 37° C., compound 8 18.75 nM, Hirulog-1 500 nM, rHIR 4 nM, FIG. 5A
# Protocol: I. et.al. J. Clin. Invest., 86: 385-391 (1990). Human a-thrombin (2 U/ml) was incubated with citrated plasma for 60 minutes at 37° C. in the absence or presence of varying concentrations of each of the inhibitors. At timed intervals, 100 μl aliquots were removed and the reaction was terminated by the addition of […] (5 μM, final concentration). Unreacted fibrinogen was then precipitated with ethanol, and the ethanol supernatants were assayed for fibrinopeptide A (FPA). Thrombin addition to plasma results in rapid FPA generation which reaches a plateau in minutes as the thrombin is complexed and inactivated by fluid-phase antiproteases.(e.g. antithrombin III).
# [6] = Group 4: 0.1 mg/kg i.v. bolus + 40 mg/kg/min i.v. infusion
substance,measurement,setting,value
(D-Phe)-Pro-Arg-Pro-(Gly)4 -Asn-Gly-Asp-Phe-Glu-Glu-Ile-Pro-Glu-Glu-Tyr-Leu-OH [Hirulog-1],proteolytic inactivation by thrombin on preincubation,[1],sensitive to proteolytic degradation
same,Incidence of Occlusion,[2]; Group 1: 0.1 mg/kg i.v. bolus + 5 mg/kg/min i.v. infusion,3/3
same,% Clot,"[2]; Group 1: 0.1 mg/kg i.v. bolus + 5 mg/kg/min i.v. infusion, mean ± S.E.M., segments with detectable thrombus",70.1 ± 5.5%
same,Incidence of Occlusion,[2]; Group 2: 0.1 mg/kg i.v. bolus + 10 mg/kg/min i.v. infusion,5/6
same,% Clot,"[2]; Group 2: 0.1 mg/kg i.v. bolus + 10 mg/kg/min i.v. infusion, mean ± S.E.M., segments with detectable thrombus",59.42 ± 4.34%
same,Incidence of Occlusion,[2]; Group 3: 0.1 mg/kg i.v. bolus + 20 mg/kg/min i.v. infusion,5/6
same,% Clot,"[2]; Group 3: 0.1 mg/kg i.v. bolus + 20 mg/kg/min i.v. infusion, mean ± S.E.M., segments with detectable thrombus",45.3 ± 11.63%
same,% Clot,[2]; [6],0%
same,Incidence of Occlusion,[2]; [6],0/6
same,inhibition of clot-bound a-thrombin-mediated FPA generation,"[3]; citrated human plasma, 60 min, 37° C., compound 8 18.75 nM, Hirulog-1 500 nM, rHIR 4 nM, FIG. 5B",only transiently inhibited FPA generation
same,inhibition of clot-bound versus fluid-phase thrombin at 60 minutes incubation,"[3]; percent inhibition of FPA generation at 60 min, FIG. 6",less inhibitory activity against clot-bound thrombin
same,Antihemostatic Effects APTT,[4]; control 32 sec,> 300 s
same,Antihemostatic Effects Bleeding Time,[4]; control 4 min,21 min
same,inhibition of fluid-phase a-thrombin-mediated FPA generation,[5],only transient inhibition
